In paper PMC9928118, “Funneling modulatory peptide design with generative models: Discovery and characterization of disruptors of calcineurin protein-protein interactions” (PLOS Computational Biology, 2023):

Tested on: GST-tagged Cn
Experiment: PEPperPRINT peptide microarray binding assay with GST-tagged Cn
Summary of the method: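 Qualitative binding: peptides printed on a PEPperPRINT microarray were incubated overnight at 4 °C with 1 mg/ml GST-tagged Cn, then detected with Alexa-Fluor 647 anti-GST antibody. Log fluorescence was baseline-corrected, averaged over duplicate spots, Z-normalized and averaged across five repeats.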

[1] = GST-tagged Cn, max over the spots on the chip (two locations)
[2] = GST-tagged Cn, mean over the spots on the chip (two locations)
[3] = max over the chip locations listed for the peptide (two spots)
[4] = mean over the chip locations listed for the peptide (two spots)
[5] = GST-tagged Cn, max over the chip locations
[6] = GST-tagged Cn, mean over the chip locations
[7] = max over the spots listed under Location on chip
[8] = mean over the spots listed under Location on chip
[9] = GST-tagged Cn, max over the spots named in Location on chip
[10] = GST-tagged Cn, mean over the spots named in Location on chip
[11] = GST-tagged Cn, max over the chip spots listed under Location on chip
[12] = GST-tagged Cn, mean over the chip spots listed under Location on chip

## RNPGTALLELRGHKAS [SeqRBMlowT_6384]
[1]
  Chip Fluorescence (max): 1.174
[2]
  Chip Fluorescence (mean): 0.5723

## KAYMNPYVQFIDGGRR [SeqRBMlowT_9255]
[1]
  Chip Fluorescence (max): 1.252
[2]
  Chip Fluorescence (mean): -0.2059

## ATPGTFPRGDGAHKKQ [SeqRBMlowT_5886]
[3]
  Chip Fluorescence (max): 4.111
[4]
  Chip Fluorescence (mean): 0.8256

## AHVSVPVIVVSPGETI [SeqRBM_3486]
[5]
  Chip Fluorescence (max): 0.2381
[6]
  Chip Fluorescence (mean): -0.4942

## LLDDVPDVVVHPPEED [SeqRBMlowT_144]
[3]
  Chip Fluorescence (max): 4.37
[4]
  Chip Fluorescence (mean): 2.238

## PGDDQPGIIVHPCEEP [SeqRBMlowT_1949]
[7]
  Chip Fluorescence (max): 2.883
[8]
  Chip Fluorescence (mean): 1.506

## GSETQPGIVVHVCEDD [SeqRBMlowT_1216]
[7]
  Chip Fluorescence (max): 2.678
[8]
  Chip Fluorescence (mean): 0.9155

## TFWTNPQFKITLEEPD [SeqRBMlowT_951]
[7]
  Chip Fluorescence (max): 2.6
[8]
  Chip Fluorescence (mean): 0.9758

## HVSSSPDITLTPTQHR [SeqRBMlowT_782]
[5]
  Chip Fluorescence (max): -0.2367
[6]
  Chip Fluorescence (mean): -0.7632

## LATQVPTFEITSPNSA [SeqNRG2_Pan_troglodytes]
[5]
  Chip Fluorescence (max): 0.1795
[6]
  Chip Fluorescence (mean): -0.588

## ADEASPRIVITPPELP [SeqRBMlowT_1222]
[3]
  Chip Fluorescence (max): 3.902
[4]
  Chip Fluorescence (mean): 0.5727

## PFLAEQYMVVEEMTVS [Seqshuffled_9732]
[9]
  Chip Fluorescence (max): 1.48
[10]
  Chip Fluorescence (mean): -0.4167

## PSLYENALGIESFTLS [SeqRBMlowT_6913]
[7]
  Chip Fluorescence (max): 2.963
[8]
  Chip Fluorescence (mean): 0.4149

## RNPGSPTLELNGHSGG [SeqRBM_9695]
[1]
  Chip Fluorescence (max): 1.159
[2]
  Chip Fluorescence (mean): -0.3352

## PPPGTPTRIGQHMAPS [SeqRBM_7926]
[5]
  Chip Fluorescence (max): -0.5504
[6]
  Chip Fluorescence (mean): -1.127

## TFWTNPQYRVHVCDPD [SeqRBMlowT_293]
[9]
  Chip Fluorescence (max): 1.378
[10]
  Chip Fluorescence (mean): -0.7162

## TFWTNPQYKIKLEDPD [SeqRBMlowT_629]
[11]
  Chip Fluorescence (max): 0.8637
[12]
  Chip Fluorescence (mean): -0.07489

## KGCAAPAISIDFAPIN [SeqRBM_541]
[3]
  Chip Fluorescence (max): 6.269
[4]
  Chip Fluorescence (mean): 0.8691

## RTNLNPFFFFTSDSKN [SeqRBM_2819]
[5]
  Chip Fluorescence (max): -0.6014
[6]
  Chip Fluorescence (mean): -1.251

## FFHHGLSCCKARQAEY [Seqrandom_9955]
[3]
  Chip Fluorescence (max): 3.699
[4]
  Chip Fluorescence (mean): 0.5277

## RNPGQPLLELEGHSAP [SeqRBMlowT_7742]
[3]
  Chip Fluorescence (max): 5.135
[4]
  Chip Fluorescence (mean): 0.4912

## TFWDNPQYQIKLNDPD [SeqRBM_8698]
[9]
  Chip Fluorescence (max): 1.7877
[10]
  Chip Fluorescence (mean): -0.1207

## TFWTNPQFRITLEDVD [SeqRBMlowT_966]
[7]
  Chip Fluorescence (max): 2.9488
[8]
  Chip Fluorescence (mean): 0.108

## TFWTNPQFRITLEDPD [SeqRBMlowT_31]
[7]
  Chip Fluorescence (max): 2.946
[8]
  Chip Fluorescence (mean): 1.658

## KAYMCPSMQFIDGGRR [SeqRBMlowT_9264]
[1]
  Chip Fluorescence (max): 1.2267
[2]
  Chip Fluorescence (mean): -0.003433

## HVSSSPDIAITPTQHR [SeqRBMlowT_750]
[5]
  Chip Fluorescence (max): 0.08257
[6]
  Chip Fluorescence (mean): -1.44

## KEGPISSTVVMEALSI [SeqRBM_843]
[11]
  Chip Fluorescence (max): 0.8382
[12]
  Chip Fluorescence (mean): -0.2608

## KAYMCPYMDFQDGGRR [SeqRBM_4270]
[7]
  Chip Fluorescence (max): 3.135
[8]
  Chip Fluorescence (mean): 0.405

## ESLWIPNATPTNFGVY [SeqRBM_4910]
[9]
  Chip Fluorescence (max): 1.643
[10]
  Chip Fluorescence (mean): 0.8461

## PKMAPPAINIDFAPTN [SeqRBMlowT_1805]
[7]
  Chip Fluorescence (max): 2.636
[8]
  Chip Fluorescence (mean): -0.01431

## TFWTNPQYRITVTEPD [SeqRBMlowT_7465]
[11]
  Chip Fluorescence (max): 0.8889
[12]
  Chip Fluorescence (mean): -0.4265

## LKDEIPEVRLNIISAL [SeqRBMlowT_1072]
[7]
  Chip Fluorescence (max): 2.998
[8]
  Chip Fluorescence (mean): 0.7654

## ASSSAPEIVVSKPEHN [SeqKCNN2_Pan_troglodytes]
[11]
  Chip Fluorescence (max): 0.501
[12]
  Chip Fluorescence (mean): -0.7597

## ADEAIPEIVISKPEEP [SeqRBMlowT_2534]
[3]
  Chip Fluorescence (max): 18.5398
[4]
  Chip Fluorescence (mean): 3.2425

## KAYMCPAVSFQDGGRR [SeqRBMlowT_4017]
[9]
  Chip Fluorescence (max): 1.6
[10]
  Chip Fluorescence (mean): -0.3289

## DSLYQEVLGIGSFSLA [SeqCRZ1_Hypocrea_virens]
[7]
  Chip Fluorescence (max): 2.584
[8]
  Chip Fluorescence (mean): -0.1117

## ASEAAPTINIDFAPNP [SeqRBMlowT_1832]
[3]
  Chip Fluorescence (max): 4.3558
[4]
  Chip Fluorescence (mean): -0.1882

## RNPGTAPLTLKGHKKQ [SeqRBMlowT_6124]
[7]
  Chip Fluorescence (max): 2.7668
[8]
  Chip Fluorescence (mean): 0.4787

## VETIRPGVVTEPMEAG [SeqRBM_4600]
[7]
  Chip Fluorescence (max): 3.238
[8]
  Chip Fluorescence (mean): 1.278

## AAGAGVGIVITVTEAE [SeqRBMlowT_180]
[7]
  Chip Fluorescence (max): 3.317
[8]
  Chip Fluorescence (mean): 1.923

## VACITWAAMLIIFSMV [Seqrandom_9980]
[11]
  Chip Fluorescence (max): 0.9057
[12]
  Chip Fluorescence (mean): -0.476

## TLWTNPQYHITLPEED [SeqRBM_3002]
[7]
  Chip Fluorescence (max): 3.2575
[8]
  Chip Fluorescence (mean): 0.9321

## PMLVFRALRIHESPLP [Seqshuffled_9670]
[11]
  Chip Fluorescence (max): 0.8908
[12]
  Chip Fluorescence (mean): 0.2837

## TFWTNPQYRVKLEDPD [SeqRBMlowT_28]
[9]
  Chip Fluorescence (max): 1.52
[10]
  Chip Fluorescence (mean): 0.4012

## TTSTNPQIRITDHEDE [Seqshuffled_9411]
[1]
  Chip Fluorescence (max): 1.2864
[2]
  Chip Fluorescence (mean): -7.047

## TEWNNPQQIVGPTEGD [SeqRBM_3582]
[5]
  Chip Fluorescence (max): 0.1516
[6]
  Chip Fluorescence (mean): -1.002

## AFLATPSIIIHPPEGP [SeqRBM_2675]
[11]
  Chip Fluorescence (max): 0.739
[12]
  Chip Fluorescence (mean): -0.5185

## STSSLPTFSFSPPQPT [SeqRBMlowT_3908]
[7]
  Chip Fluorescence (max): 2.68
[8]
  Chip Fluorescence (mean): 0.3277

## KVMAVPRISRSPTQVL [SeqRBM_6937]
[9]
  Chip Fluorescence (max): 1.835
[10]
  Chip Fluorescence (mean): 0.723

## LNLKIPIVLLNIISAI [SeqRBM_9387]
[9]
  Chip Fluorescence (max): 1.375
[10]
  Chip Fluorescence (mean): 0.2818

## GTLYDNVLGIESFSLS [SeqRBMlowT_4817]
[3]
  Chip Fluorescence (max): 3.464
[4]
  Chip Fluorescence (mean): 0.964

## ARPPNAAFVLDQETTY [Seqshuffled_9990]
[1]
  Chip Fluorescence (max): 1.0396
[2]
  Chip Fluorescence (mean): 0.6258

## STSSLPTFSFSTPPPT [SeqRBMlowT_1617]
[1]
  Chip Fluorescence (max): 1.022
[2]
  Chip Fluorescence (mean): -1.34

## RQPGTLGLTLEGHSNS [SeqRBM_7786]
[11]
  Chip Fluorescence (max): 0.7712
[12]
  Chip Fluorescence (mean): -0.3628

## RSYINPFVTFLDHGHR [SeqSFB3_Blumeria_graminis]
[11]
  Chip Fluorescence (max): 0.7568
[12]
  Chip Fluorescence (mean): -0.5098

## ADEANPEITITPPELP [SeqRBMlowT_372]
[3]
  Chip Fluorescence (max): 6.273
[4]
  Chip Fluorescence (mean): 1.325

## PQMAPPAINIDFAPTN [SeqRBMlowT_2475]
[9]
  Chip Fluorescence (max): 1.458
[10]
  Chip Fluorescence (mean): -0.38

## NMGTGVGIVITITEAV [SeqAKAP79_Meleagris_gallopavo]
[7]
  Chip Fluorescence (max): 2.665
[8]
  Chip Fluorescence (mean): 0.9097

## TFWINPQIVITLADED [SeqRBMlowT_2933]
[7]
  Chip Fluorescence (max): 2.77
[8]
  Chip Fluorescence (mean): 0.3523

## LKDEVPEVRLNIISSL [SeqRBMlowT_4107]
[11]
  Chip Fluorescence (max): 0.9435
[12]
  Chip Fluorescence (mean): -0.1625

## RNPGQALLQLSGHKAP [SeqRBM_8761]
[5]
  Chip Fluorescence (max): 0.09132
[6]
  Chip Fluorescence (mean): -0.8885

## RNPGQALLTLRGHSAS [SeqRBMlowT_5835]
[11]
  Chip Fluorescence (max): 0.6321
[12]
  Chip Fluorescence (mean): -0.2233

## TNSHNPQVDLKIPQVR [SeqRBMlowT_6893]
[3]
  Chip Fluorescence (max): 5.271
[4]
  Chip Fluorescence (mean): 0.9753

## TFWMNPQYMIKLEEED [SeqCAPN11_Monodelphis_domestica]
[3]
  Chip Fluorescence (max): 4.262
[4]
  Chip Fluorescence (mean): 0.2921
